This is an account of results in paper PMC11473416, “Coumarin-chalcone derivatives as dual NLRP1 and NLRP3 inflammasome inhibitors targeting oxidative stress and inflammation in neurotoxin-induced HMC3 and BE(2)-M17 cell models of Parkinson's disease” (Frontiers in Aging Neuroscience, 2024).

One data set has as its system NRF2. The data set can be described thus: Western blot NRF2 in MPP^+-treated BE(2)-M17 cells. Type of data set: cell-based, human. Conditions: BE(2)-M17, compound 10 μM + 0.62 mM MPP^+; MPP^+ alone 75%; untreated = 100%. On the procedure: HMC3 (2 × 10^5/6-well) or BE(2)-M17 (4 × 10^5/6-well) cells were lysed in buffer (composition: 50 mM Tris-HCl pH8.0, 2 mM EDTA pH8.0, 150 mM NaCl, 0.5% sodium deoxycholate, 0.1% SDS, 50 mM NaF, 1% NP40) containing the protease and/or phosphatase inhibitor cocktail (Sigma-Aldrich). After sonication, the lysates were centrifuged (12,000 × g for 10 min at 4°C) and protein concentrations determined (Bradford protein assay; Bio-Rad, Hercules, CA, USA). Aliquots of protein (20 μg) were separated by electrophoresis using 10%−12% SDS–polyacrylamide gel followed by transfer to a polyvinylidene fluoride (PVDF) membrane. After being blocked, the PVDF membrane was stained with NLRP3 (#15101s), caspase-1 (CASP1; #3866s), iNOS (#20609), IL-1β (#12242), CREB (#9192), BCL2-associated X (BAX; #2772; 1:1,000; Cell Signaling), IL-6 (#ab6672), TNF-α (#ab9739), GCLC (#ab41463), BDNF (#ab108319; 1:1,000; Abcam, Cambridge, UK), NLRP1 (#NBP-1-54899; 1:500; Novus Biologicals, Centennial, CO, USA), NRF2 (#ABE413), NQO1 (#N5288), p-CREB (Ser133; #06-519; 1:1,000; Sigma-Aldrich), PGC-1α (#GTX37356; 1:1,000; GeneTex, Irvine, CA, USA), B-cell lymphoma 2 (BCL2; #IR94-392; 1:1,000; iReal Biotechnology, New Taipei City, Taiwan), or glyceraldehyde-3-phosphate dehydrogenase (GAPDH; #30000002; 1:1,000; MDBio, Taipei, Taiwan) primary antibody at room temperature 2 h or 4°C overnight. The immune complexes were detected using horseradish peroxidase (HRP)-conjugated goat anti-mouse or goat anti-rabbit IgG antibody (1:5,000; GeneTex) and chemiluminescent HRP substrate (Millipore, Burlington, MA, USA). Immunoreactive bands were captured (ImageQuant™ LAS 4000, GE Healthcare, Chicago, IL, USA) and quantified (Multi Gauge V3.0 software, Fujifilm, Tokyo, Japan).
A general note: A western blot detects proteins with antibodies after separation by electrophoresis.

Data set [1] is described as follows: cytotoxicity MTT assay in HMC3 cells. Type of data set: cell-based, human. Conditions: human, MTT, 1–100 μM, 24 h. How it is done:
Human HMC3 microglial (CRL-3304) and neuroblastoma BE(2)-M17 (CRL-2267) cells were obtained from American Type Culture Collection. BE(2)-M17 develops a better dopaminergic phenotype than SH-SY5Y when treated with retinoic acid to direct neuronal differentiation (Carvajal-Oliveros et al., [2022]). Cells were routinely maintained in Dulbecco's Modified Eagle Medium-Nutrient Mixture F12 (DMEM-F12) supplemented with 10% fetal bovine serum (FBS; Thermo Fisher Scientific, Waltham, MA, USA) in a 37°C incubator, with 95% relative humidity and 5% CO2 (NuAire, Plymouth, MN, USA).
To evaluate cytotoxicity of LM compounds and MPP^+, HMC3 (1 × 10^4) or BE(2)-M17 (2 × 10^4) cells were plated on 96-well dishes, grown for 20 h, and treated with LM compounds (1–100 μM) or MPP^+ [HMC3: 0–8 mM; BE(2)-M17: 0–5 mM]. Next day, 20 μl of tetrazolium dye 3-(4,5-dimethylthiazol-2-yl)-2,5-diphenyltetrazolium bromide (MTT, 5 mg/ml; Sigma-Aldrich) was added to the cells at 37°C for 3 h. The resulted insoluble purple formazan products were dissolved by lysis buffer (composition: 10% Triton X-100, 0.1 N HCl, 18% isopropanol). The absorbance of the dissolved product at optical density (OD) 570 nm was read by using a FLx800 fluorescence microplate spectrophotometer (Bio-Tek, Winooski, VT, USA). The half maximal inhibitory concentration (IC50) of LM compounds was determined through the construction of a dose-response curve. MPP^+ at 4 mM (HMC3 cell viability: 65%−69%) or 0.62 mM [BE(2)-M17 cell viability: 79%−84%] was selected to induce inflammation for further experiments.

The test system of data set [2] is MPP^+-treated BE(2)-M17 cells. The experiment in a line: cell viability (MTT) in MPP^+-treated BE(2)-M17 cells. The conditions noted are these: Homo sapiens, read-out: cell viability. Type of data set: cell-based. On the procedure: To examine neuroprotective potential of LM compounds, BE(2)-M17 cells were plated onto 96-well plate [1 × 10^4/well for cell viability and lactate dehydrogenase (LDH) release assays] or 24-well plate (5 × 10^4/well for ROS assay) with retinoic acid addition (5 μM) on day 1 to initiate neuronal differentiation. On day 5, after removing retinoic acid, cells were pre-treated with LM compounds (1–10 μM) for 8 h, followed by addition of 0.62 mM MPP^+ for 40 h. The cell viability was evaluated by MTT assay as described, and the release of LDH in cell culture medium was measured by using LDH cytotoxicity assay kit (Cayman Chemical). The absorbance was read at 490 nm with Multiskan GO microplate reader (Thermo Fisher Scientific).

The subject of data set [3] is tyrosine hydroxylase (TH). The data set can be described thus: tyrosine hydroxylase immunofluorescence staining in MPP^+-treated BE(2)-M17 cells. Format: cell-based, human. The conditions noted are these: for TH expression (immunofluorescence): BE(2)-M17, compound 10 μM + 0.62 mM MPP^+, MPP^+ alone 107%, untreated = 100%. How it is done:
BE(2)-M17 cells were seeded in 24-well plate (5 × 10^4/well) and treated with retinoic acid, LM compounds (10 μM), and MPP^+ as described. On day 7, cells were fixed (4% PFA), permeabilized (0.1% Triton X-100), blocked (2% BSA), and stained with primary tyrosine hydroxylase (TH; a marker for dopamine-containing neurons; Haavik and Toska, [1998]) antibody (#sc-374047; 1:500; Santa Cruz Biotechnology, Santa Cruz, CA, USA) at 4°C overnight, followed by Alexa Fluor 488-donkey anti-mouse IgG secondary antibody (#A-21202; 1:1,000; Thermo Fisher Scientific) at room temperature for 2 h. Nuclei were detected using DAPI (0.1 μg/ml). Dopaminergic differentiation was examined by fluorescence imaging of Alexa Fluor 488 as described.

Like-named read-outs stand apart in the source and are kept apart here.

Broadly, the IC50 is the concentration that gives 50% inhibition. Read a low IC50 as greater potency. The viability is a per cent measure of how many cells are alive, often set against a control. Turning to `Cc1ccc(/C=C/C(=O)c2c(O)c3ccccc3oc2=O)cc1` [LM-016], the NRF2 level in the data set with NRF2 was 99–101%. The IC50 at 24 h in data set [1] (HMC3 microglial cells) was > 100 µM. Also, in data set [2] (retinoic acid-differentiated BE(2)-M17, compound 10 μM 8 h, then 0.62 mM MPP^+ 40 h, MPP^+ alone 81%, untreated = 100%), the viability at 10 µM lay in the range of 95 to 97%.
`CN(C)c1ccc(/C=C/C(=O)c2c(O)c3ccccc3oc2=O)cc1` [LM-021, (E)-3-(3-(4-(dimethylamino)phenyl)acryloyl)-4-hydroxy-2H-chromen-2-one]: in data set [3], the “TH expression (immunofluorescence)” value was 165%. Moreover, the NRF2 level with NRF2 was 99–101%. Moreover, the IC50 in data set [1] was > 100 µM. Moreover, the viability at 10 µM in data set [2] lay in the range of 95 to 97%.
For `O=C(/C=C/c1ccccc1O)c1c(O)c2ccccc2oc1=O` [LM-036] the same measures were 128%, 99–101%, > 100 µM and 95 to 97%.
For `C[n+]1ccc(-c2ccccc2)cc1` [MPP^+, 1-methyl-4-phenyl pyridinium, reference compound], the TH immunofluorescence in data set [3] (BE(2)-M17, 0.62 mM MPP^+ alone, 40 h, untreated control = 100%) is recorded as 107%.
